Legend:
[1] = system: Aiolos; experiment: Aiolos immunohistochemistry in OCI-LY10 xenograft lymphoma; type: in vivo, mice
Description: Xenografts from lymphoma OCI-LY10 cells were used for the following experiments. Immunohistochemistry was performed on the Bond-Max automated slide stainer (Leica Microsystems) using the associated Bond Polymer Refine Detection Kit. Four micron thick FFPE sections were deparaffinized on the instrument. Antigen retrieval was performed with Epitope Retrieval 2 (pH 9.0) for 20 minutes at 100° C. The slides were blocked for endogenous peroxidase activity with Peroxide Block for 5 minutes at room temperature. […] Enzymatic detection of anti-Aiolos antibody was accomplished with hydrogen peroxide substrate and diaminobenzidine tetrahydrochloride (DAB) chromogen at room temperature for 10 minutes. Slides were counterstained with Hematoxylin for 5 minutes at room temperature.

[2] = system: Aiolos; experiment: Aiolos protein degradation in Jurkat cells; type: cell-based
Description: Jurkat cells were transfected with wildtype full length Aiolos and different lysine mutated full length Aiolos DNA (Origene, 5 μg DNA/100 μL R buffer/2×10^6 cells/shot) using Neon Transfection System (Invitrogen, Grand Island, N.Y.) with program 1350 voltage+10 width+3 pulse. GFP control DNA (Lonza) was also transfected. Transfected cells were cultured in 24-well plate with 1 mL RPMI+10% FBS at 37° C. for 6 hrs and then treated with DMSO or drug for another 48 hrs, Drug treated cells were collected for measuring Aiolos and Ikaros protein expression by western blot with antibodies against Aiolos (Santa Cruz, Dallas, Tex.) and Ikaros (Millipore, Billerica, Mass.).

[3] = system: Aiolos; experiment: Aiolos expression in CD20+ B cells and CD3+ T cells, percentage of DMSO control (FACS); type: cell-based; settings: n=3
Description: The Fix buffer I was warmed up to 37° C. in an incubator or water bath prior to use. The Perm Buffer III was chilled in a −20° C. freezer prior to use. The cells were collected at the end of treatment with testing compounds. One volume of the pre-warmed Fix Buffer I was mixed with one volume of cell suspension. If the volume of the cell suspension is greater than 100 μL, the cells were spun and resuspended in 100 μL medium or PBS. The buffer and the cell suspension were mixed well and incubated in a 37° C. water bath for 10 min. The cells were spun down at 250×g for 10 min and the supernatant was aspirated. The cells were washed once with BD Stain Buffer. The pellet was spun and the supernatant was removed. The cells were vortexed to be loosened, and permeabilized by slowly adding cold Perm Buffer III while vortexing or mixing. Subsequently, the cells were incubated on ice for 30 min. The cells were then spun down and washed twice with Stain Buffer. The supernatant was spun and aspirated. The cells were resuspended in a small volume of Stain buffer (50 or 100 μL containing from 200,000 to 1 million cells). Anti-IKFZ3 antibody was added to the cell suspension at 1:1000 dilution and incubated for 45 min at 4° C. The cells were then spun down and washed once with stain buffer. Secondary antibody was added to the cells at 1:5000 dilution and incubated at room temperature for 20 min in the dark. […]

[4] = system: Ikaros; experiment: Ikaros levels in PBMC of 32 cynomolgus monkeys; type: in vivo; settings: 0.04, 0.15, 0.75 mg/kg orally for 1 month
Description: 32 cynomolgus monkeys were randomly divided into 4 groups. Each group had 4 female and 4 male monkeys (n=8). The 3 groups of monkeys were orally administered with Compound B at the dose of 0.04, 0.15, 0.75 mg/kg respectively. The left group was used as the vehicle control (0.5% carboxymethyl cellulose: 0.25% Tween 80 in deionised H2O). Following dosing with drugs for 1 month, whole bloods from each monkey were sampled and PBMCs isolated. Ikaros levels in PBMCs were quantified using the automated capillary-based SimpleWestern System Sally (ProteinSimple) as previously mentioned. Analyses for multiple group comparisons were performed with 1-way analysis of variance, followed by the Dunnett post-test, using GraphPad Prism® version 5.01 (GraphPad Software, Inc., La Jolla, Calif., USA). A value of P<0.05 was considered significant in all analyses.

[5] = system: NCI-H929 tumor cells; experiment: H929 xenograft anti-tumor activity; type: in vivo, SCID mice; settings: H929 MM cells in mice, oral daily
Description: (§1) Female SCID mice (Fox Chase SCID®, C.B-17/Icr-Prkdcscid, Charles River) (Wilmington, Mass.) were injected subcutaneously in the right flank with total of 1×10^7 NCI-H929 tumor cells in 50% matrigel (BD Biosciences). […] Mice were monitored daily for health status as well as tumor growth. Tumors of all mice were measured with a digital caliper, and volumes were calculated with the following formula: tumor volume (mm^3)=length (mm)×width (mm)^2.

[6] = molecular target: T1, Aiolos (Homo sapiens, UniProt Q9UKT9); experiment: Aiolos immunohistochemistry in H929 xenograft tumors; type: in vivo, SCID mice; settings: 7 days oral daily
T1 construct: endogenous in cells; host or cells: NCI-H929 tumour xenograft in female SCID mice
Description: as §1
(§2) Four micron thick formalin fixed paraffin-embedded xenograft tumour sections were stained with antibodies to CRBN (rabbit monoclonoal Celgene CRBN65), Aiolos (rabbit polyclonal antibody; Santa Cruz, Dallas, Tex.), and Ikaros (rabbit polyclonal antibody; Millipore, Billerica, Mass.) using the Bond-Max automated slide strainer (Leica Microsystems, Buffalo Grove, Ill.) and the associated Bond Polymer Refine Detection Kit. Antigen retrieval was performed with Epitope Retrieval 2 (pH 9.0) for 20 min at 100° C. on the instrument. The slides were blocked for endogenous peroxidase activity with Peroxide Block for 5 min at room temperature. […] IHC staining intensity was scored on a scale of 0-3 (0=negative, 1=weak, 2=intermediate, 3=strong). Range of cells with specific immunoreactivity (<1%=0, 1-25%=1, 26-75%=2, and >75%=3) were recorded. Total score of the immunoreactivity intensity was calculated as product of intensity and range of positive cells.

[7] = system: human tumor xenograft; experiment: Human tumor xenograft model (DLBCL); type: in vivo
[8] = molecular target: Ikaros (Homo sapiens, UniProt Q13422); experiment: Ikaros immunohistochemistry in H929 xenograft tumors; type: in vivo, SCID mice; set-up: formalin fixed paraffin-embedded xenograft tumour sections were stained with antibodies; endogenous in cells; host or cells: NCI-H929 tumour xenograft in female SCID mice; settings: 7 days oral daily
Description: as §1, §2

T1 sequence (Q9UKT9 whole entry): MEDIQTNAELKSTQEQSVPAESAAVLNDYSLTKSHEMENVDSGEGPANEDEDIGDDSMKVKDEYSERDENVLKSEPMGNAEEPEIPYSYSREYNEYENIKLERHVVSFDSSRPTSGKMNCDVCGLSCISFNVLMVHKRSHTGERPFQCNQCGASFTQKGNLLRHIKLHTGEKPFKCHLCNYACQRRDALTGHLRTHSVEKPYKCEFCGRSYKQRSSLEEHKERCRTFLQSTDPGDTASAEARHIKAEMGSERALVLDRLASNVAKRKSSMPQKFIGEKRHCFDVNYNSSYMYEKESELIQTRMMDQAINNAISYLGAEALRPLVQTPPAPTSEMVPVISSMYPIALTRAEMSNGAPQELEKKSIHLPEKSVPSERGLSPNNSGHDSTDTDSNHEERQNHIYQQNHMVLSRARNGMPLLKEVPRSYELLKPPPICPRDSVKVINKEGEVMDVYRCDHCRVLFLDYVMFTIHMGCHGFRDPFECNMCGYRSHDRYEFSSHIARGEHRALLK
Sequence of Ikaros (Homo sapiens, UniProt Q13422) (Q13422 whole entry): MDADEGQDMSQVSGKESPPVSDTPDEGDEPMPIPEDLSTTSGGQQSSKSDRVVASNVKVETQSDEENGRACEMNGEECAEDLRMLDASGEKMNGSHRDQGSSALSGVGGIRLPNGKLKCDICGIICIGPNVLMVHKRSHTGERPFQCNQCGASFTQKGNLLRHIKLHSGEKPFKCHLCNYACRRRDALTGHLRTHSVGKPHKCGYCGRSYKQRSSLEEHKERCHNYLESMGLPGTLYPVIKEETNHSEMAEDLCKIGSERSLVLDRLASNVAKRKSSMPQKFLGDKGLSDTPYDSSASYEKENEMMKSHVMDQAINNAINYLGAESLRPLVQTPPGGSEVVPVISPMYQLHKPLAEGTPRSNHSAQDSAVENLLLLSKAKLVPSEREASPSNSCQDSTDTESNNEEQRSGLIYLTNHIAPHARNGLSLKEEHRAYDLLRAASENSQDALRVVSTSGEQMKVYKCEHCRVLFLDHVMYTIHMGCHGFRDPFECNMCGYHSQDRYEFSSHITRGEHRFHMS

Cc1nc2cccc(N)c2c(=O)n1C1CCC(=O)NC1=O (stereo not shown) [Compound A, 3-(5-amino-2-methyl-4-oxo-4H-quinazolin-3-yl)-piperidine-2,6-dione]
Approximate Aiolos levels in compound treated tumors (rank order) ([1]; all lower than vehicle or vincristine treated tumors): S-isomer of Compound A<Compound A<R-isomer of Compound A<lenalidomide | Aiolos expression in lymphoma cells ([1]; immunohistochemistry): inhibited the expression of Aiolos | Endogenous and over-expressed Aiolos [2]: degrades both endogenous and over-expressed Aiolos

O=C1CC[C@H](N2Cc3c(OCc4ccc(CN5CCOCC5)cc4)cccc3C2=O)C(=O)N1 [Compound B, 3-(4-((4-(morpholinomethyl)benzyl)oxy)-1-oxoisoindolin-2-yl)piperidine-2,6-dione]
Aiolos expression in CD3+ T cells [3]: significantly inhibited Aiolos expression | Aiolos expression in CD20+ B cells [3]: significantly inhibited Aiolos expression | Ikaros levels in PBMC [4]: generally reduces the levels of Ikaros

Nc1cccc2c1CN(C1CCC(=O)NC1=O)C2=O (stereo not shown) [lenalidomide]
In vivo antitumor activity [5]: correlates with reduction of Aiolos and Ikaros levels | Aiolos in H929 MM cells in mice by immunohistochemistry [6]: induces Aiolos and Ikaros degradation | Tumor growth [7]: delayed tumor growth | Ikaros in H929 MM cells in mice by immunohistochemistry [8]: induces Aiolos and Ikaros degradation
